{"source": "patent US20050074765A1", "about": "“Methods for identifying and using modulators of estrogen related receptor gamma” (priority 2002, published 2005)", "key": {"ERRγ:RIP140 complex": {"target": "T1, ERRγ:RIP140 complex (Homo sapiens, UniProt P62508)", "T1 construct": "made in house; host or cells: E. coli BL21(DE3), pRSETa vector; RIP140 peptide synthesised by SynPep", "T1 sequence (P62508 with tags, fused parts or gaps)": "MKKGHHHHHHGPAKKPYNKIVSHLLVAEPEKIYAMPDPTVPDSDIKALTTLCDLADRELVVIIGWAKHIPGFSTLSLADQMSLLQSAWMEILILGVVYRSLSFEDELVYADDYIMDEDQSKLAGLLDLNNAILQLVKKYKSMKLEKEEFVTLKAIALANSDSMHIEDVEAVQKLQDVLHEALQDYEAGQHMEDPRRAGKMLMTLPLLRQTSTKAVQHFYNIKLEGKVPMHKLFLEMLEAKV", "assay": "ERRγ:RIP140 FRET ligand sensing assay (LiSA)", "type": "biochemical", "conditions": "ERRγ LBD and RIP140 peptide, one to one ratio", "procedure": "Before using the buffer in the assay, 10 mM DTT was added to the appropriate amount of buffer."}, "ERRγ": {"target": "T2, ERRγ (Homo sapiens, UniProt P62508)", "T2 construct": "made in house; host or cells: E. coli BL21(DE3), pRSETa vector", "T2 sequence (P62508 with tags, fused parts or gaps)": "T1 sequence (P62508 with tags, fused parts or gaps)", "assay": "ERRγ direct binding assay ([3H]-tamoxifen competition, SPA)", "conditions": "found using FRET assay and direct binding assay in conjunction with the homology model", "excerpt": "The binding assay was developed with a different set of parameters than that of the LiSA assay. No common set of assay conditions is applicable to all nuclear receptors. Accordingly, parameters to be optimized included pH, detergents, carriers, and bead concentrations. By […] several variables at one time, a large number of conditions can be examined through the statistical capabilities of a program called JMP (SAS Institute, Cary N.C.). Multiple variables including, but not limited to, buffer, detergents, and carrier, were entered simultaneously Lnto the program with the goal being to increase specific counts while lowering non-specific counts.\nThe same ERRγ protein as set forth in Example 4 was used to develop the binding assay. The buffer for this system was prepared with 50 mM MOPS (pH 7), 50 mM KCl, and 1 mM EDTA, in 1 L of deionized water. This buffer was then filtered with the Corning (431205) filter system with a 0.22 μm cellulose Acetate filter. After filtering, 0.01% Tween20 was added. Before using the buffer in the assay, 10 mM DTT was added to the appropriate amount of buffer. Approximately 0.125 mg/ml SA-SPA beads (Wallac) were coated with 20 nM biotinylated ERRγ. […] These plates were then read on the Wallac Trilux scintillation counter."}}, "data": [{"molecule": "4-hydroxytamoxifen", "values": [{"measurement": "dissociation of the receptor:cofactor interaction", "setting": "ERRγ:RIP140 complex", "result": "caused this dissociation"}, {"measurement": "ligand for ERRγ", "setting": "ERRγ", "result": "ligands for ERPγ"}]}, {"molecule": "CC/C(=C(/c1ccc(OCCN(C)C)cc1)c1cccc(O)c1)c1ccccc1", "note": "[3-hydroxytamoxifen]", "values": [{"measurement": "ligand for ERRγ", "setting": "ERRγ", "result": "ligands for ERPγ"}]}]}
